Laboratory results published in patent publication US4243668A, “Octahydro-1H-benzo[4,5]furo[3,2-e]-isoquinoline analgesic and narcotic antagonistic compounds” (priority 1979, dated 1981).
Read-outs that look alike come from different tables or passages of the source.

Legend:
[1] = tested on: induction of Straub tail in mice by a highly addicting agonist such as morphine; settings: Blumberg et al. 1968; cited from earlier work
[2] = cited from earlier work; for intrinsic analgesic activity, in words: background statement
[3] = tested on: induction of Straub tail in mice by a highly addicting agonist such as morphine; assay: anti-Straub tail test, antagonism of morphine-induced Straub tail (narcotic antagonism); type: in vivo, Female CF1 S mice; settings: for ED50: Mus musculus, mice, vs morphine sulfate 30 mg/kg i.p.
Straub tail = Straub tail reaction (oral), narcotic agonist effect; type: in vivo, CF1 S female mice; settings: Mus musculus, mice
Experimental: Narcotic analgesics produce in mice an erection and arching of the tail (90° or more) which is referable to spinal cord stimulation. This Straub tail reaction is not produced by other analgesics, including the narcotic antagonists.
The method used was modified from Shemano, I., and Wendel, H., Tox. Appl. Pharm., 6, 334-9 (1964). CF1 S female mice (18-21 g), 10-20 mice per dose, were intubated with log scaled doses of analgesic in 1% aqueous methylcellulose. A positive Straub tail response was recorded if a tail was erected 90° or more for 5 seconds at any time within 24 minutes after dosing. A quantal Straub tail ED50 was calculated by the moving average method [Thompson, W. R., Bact. Rev., 11, 115-145 (1947)].

[4] = tested on: pain induced by phenylquinone; assay: phenylquinone writhing test (oral anti-PQW), analgesic activity; type: in vivo, female white mice; settings: for ED50: Mus musculus, po, mice, oral, phenylquinone writhing, read-out: EFFECT ED50 Oral Anti-PQW
Experimental: A standard procedure for detecting and comparing the analgesic activity of compounds in this series for which there is good correlation with human efficacy is the standard phenylquinone writhing test modified from Siegmund, et al., Proc. Soc. Exp. Biol. Med., 95, 729 (1957). A test compound suspended in 1% methocel® was given orally to fasted (17-21 hours) female white mice, 5-20 animals per double blind test. Aqueous (0.01% phenyl-p-benzoquinone) phenylquinone was injected intraperitoneally at 24 minutes later using 0.20 ml per mouse. […] The effective analgesic dose for 50% of the mice (ED50) was calculated by the moving average method of Thompson, W. R., Bact. Rev., 11, 115-145 (1947).

[5] = sc, s.c., read-out: EFFECT ED50 subcutaneous(s.c.) Anti-Straub Tail

| Compound | ED50 (Straub tail) | ED50 [4] | ED50 [3, 5] | other results |
| --- | --- | --- | --- | --- |
| C=CCN1CC[C@]23c4c5ccc(O)c4O[C@H]2C(=O)CC[C@@]3(O)[C@H]1C5 [naloxone] | – | – | – | prevention of morphine-induced Straub tail, in words [1]: prevent the induction of Straub tail in mice |
| C=CCN1CC[C@]23CCCC[C@H]2[C@H]1Cc1ccc(O)cc13 [levallorphan] | – | – | – | intrinsic analgesic activity, in words [2]: some analgesic effects |
| C=CCN1CC[C@]23c4c5ccc(O)c4O[C@H]2[C@@H](O)C=C[C@H]3[C@H]1C5 [nalorphine] | – | – | – | prevention of morphine-induced Straub tail, in words [1]: prevent the induction of Straub tail in mice; intrinsic analgesic activity, in words [2]: some analgesic effects; analgetic properties in man, in words ([2]; in man, Lasagna and Beecher 1954): analgetic properties in man |
| COc1cccc2c1O[C@H]1CCC[C@H]3CN(C)CC[C@@]231 (relative stereo) [Example 2, 9-Methoxy-3-methyl-2,3,4,4aα-5,6,7,7aα-octahydro-1H-benzo[4,5]furo[3,2-e]isoquinoline] | > 135 mg/kg | 9.8 mg/kg | – | ED50 ([3]; ip, i.p., read-out: EFFECT ED50 Intraperitoneal(i.p.) Anti-Straub Tail): 10.1 mg/kg |
| COc1cccc2c1O[C@H]1CCC[C@H]3CN(CC=C(C)C)CC[C@@]231 (relative stereo) [Example 17, 3-(3'-Methyl-2'-butenyl)-9-methoxy-2,3,4,4aα,5,6,7,7aα-octahydro-1H-benzo[4,5]furo[3,2-e]isoquinoline] | > 135 mg/kg | 18.7 mg/kg | 7.8 mg/kg | – |
| COc1cccc2c1O[C@H]1CCC[C@H]3CN(Cc4ccccc4)CC[C@@]231 (relative stereo) [Example 10, 3-Benzyl-9-methoxy-2,3,4,4aα,5,6,7,7aα-octahydro-1H-benzo[4,5]furo[3,2-e]isoquinoline] | > 81 mg/kg | 48 mg/kg | 48 mg/kg | narcotic antagonism, in words ([3]; mouse anti-Straub tail test): pure narcotic antagonists |
| Oc1cccc2c1O[C@H]1CCC[C@H]3CN(CC4CC4)CC[C@@]231 (relative stereo) [Example 5, 3-Cyclopropylmethyl-2,3,4,4aα,5,6,7,7aα-octahydro-1H-benzo[4,5]furo[3,2-e]isoquinolin-9-ol] | > 81 mg/kg | 0.75 mg/kg | 0.006 mg/kg | analgesic potency compared with morphine ([4]; mouse analgesia data, relative to morphine): several times greater potency than morphine |
| CCCCCN1CCC23c4cccc(O)c4OC2CCCC3C1 (stereo not shown) [Example 26] | 37 mg/kg | 5.3 mg/kg | > 27 mg/kg | – |
